Data reported in the NIST ThermoML archive (doi:10.1021/je050165t).

What was measured:
[1] = 101 kPa, Liquid
[2] = xn = mol fraction of the nth substance listed; details: 101 kPa, Liquid

CO [methanol]
[1]
Details	mass density [kg/m3]	speed of sound [m/s]
298.15 K	786.531	1102.7
303.15 K	781.808	1086.4
308.15 K	777.066	1070.1
313.15 K	772.283	1054
318.15 K	767.474	1037.9

CO [methanol] + CCCCn1cc[n+](C)c1.F[P-](F)(F)(F)(F)F
[2], x2 = 0
Details	mass density [kg/m3]	speed of sound [m/s]
298.15 K	786.531	1102.7
303.15 K	781.808	1086.4
308.15 K	777.066	1070.1
313.15 K	772.283	1054
318.15 K	767.474	1037.9

CC#N [acetonitrile] + CCCCn1cc[n+](C)c1.F[P-](F)(F)(F)(F)F
[2], x2 = 0
Details	mass density [kg/m3]	speed of sound [m/s]
298.15 K	776.533	1278.6
303.15 K	771.116	1258.7
308.15 K	765.66	1238.7
313.15 K	760.162	1218.5
318.15 K	754.462	1198.3

CCCCn1cc[n+](C)c1.F[P-](F)(F)(F)(F)F [1-butyl-3-methylimidazolium hexafluorophosphate] + CO
[2]
Details	mass density, 298.15 K [kg/m3]	mass density, 303.15 K [kg/m3]	mass density, 308.15 K [kg/m3]	mass density, 313.15 K [kg/m3]	mass density, 318.15 K [kg/m3]	speed of sound, 298.15 K [m/s]	speed of sound, 303.15 K [m/s]	speed of sound, 308.15 K [m/s]	speed of sound, 313.15 K [m/s]	speed of sound, 318.15 K [m/s]
x1 = 0.0223	852.499	847.778	843.039	838.277	833.49	1132.1	1116.9	1101.8	1086.7	1071.7
x1 = 0.0484	914.856	910.156	905.442	900.703	895.952	1155.5	1141.5	1127.5	1113.6	1099.7
x1 = 0.0786	972.943	968.272	963.583	958.877	954.071	1180.7	1167.7	1154.6	1141.6	1128.6
x1 = 0.1869	1111.37	1106.76	1102.15	1097.53	1092.91	1261.6	1249.8	1238	1226.1	1214.3
x1 = 0.2156	1136.5	1131.89	1127.3	1122.7	1118.12	1280.7	1268.9	1257.2	1245.5	1233.8
x1 = 0.3573	1223.91	1219.39	1214.87	1210.36	1205.87	1340.7	1329.1	1317.5	1306	1294.5
x1 = 0.4572	1263.6	1259.04	1254.81	1250.5	1246.03	1366.7	1355.1	1343.6	1332.1	1320.7
x1 = 0.6222	1308.96	1304.59	1300.24	1295.96	1291.78	1400.5	1388.9	1377.4	1365.9	1354.7
x1 = 0.7736	1337.5	1333.24	1328.99	1324.76	1320.54	1421.1	1409.5	1398	1386.6	1375.3
x1 = 0.9208	1357.7	1353.55	1349.39	1345.23	1341.08	1435.2	1423.5	1411.9	1400.6	1389.4
x1 = 1	1366.66	1362.4	1358.3	1354.19	1350.08	1442.4	1430.6	1419	1407.5	1396.3
